Test results from US10905782B2, “Compositions for enhancing transport of molecules into cells” (priority 2003, dated 2021).

Columns and labels:
[1] = tested on: 705 splice site (luciferase gene interrupted by a human β-globin intron mutated at nucleotide 705); assay: pLuc/705 splice correction assay: luciferase production in HeLa pLuc/705 cells; format: cell-based; settings: splice-correction assay monitored over time
Method: The data described below was obtained by targeting a β-globin splice correction sequence fused to luciferase.
Other cell lines were obtained from ATCC (Manassas, Va.). […] All assays were carried out with exponentially growing cells in culture media containing 10% fetal bovine serum (FBS) unless otherwise specified.
This assay measures the ability of steric blocking oligomers to enter cells and nuclei, block incorrect splicing of pre-mRNA, and thus cause expression of a reporter gene. It avoids the confusion of cytotoxicity with activity that can affect down-regulation assays, as cells must be able to carry out RNA processing and translation to produce a signal. Because oligomers must enter cells and cell nuclei to produce a signal in the assay, it is very useful for measuring uptake and effectiveness of delivery moieties.
The time course of the uptake of various transporter-PMO-fluorescein conjugates, as described above, in HeLa pLuc/705 cells was studied by fluorescence spectroscopy. Experiments were generally run in triplicate. According to the general procedure, culture medium containing the test substance at a specified concentration was added to HeLa pLuc/705 cells plated in a 48-well plate. After incubation, at each time point, the cells were washed with PBS three times, and the cell lysate was collected as described under “Fluorometry”, above. The amount of functional luciferase produced was determined by mixing 30 μl of cell lysate and 50 μl of Luciferase Assay Reagent (LAR) (Promega, Wis.) and measuring the light production using a Flx 800 microplate fluorescence/luminescence reader (Bio-tek, Vermont). The relative light units were normalized to μg of protein determined by the bicinchoninic acid (BCA) method, following the manufacturer's procedure (Pierce, Ill.).

[2] = tested on: HeLa pLuc705 derived from HeLa S3, HeLa, NIH3T3, and Jurkat; assay: Cellular uptake by fluorescent microscopy in live cells; format: cell-based
Method: HeLa pLuc/705 (Kang, Cho et al. 1998) is a HeLa S3 cell line stably transfected with a plasmid carrying the luciferase coding sequence interrupted by a mutated human β-globin intron 2 (Gene Tools, Philomath, Oreg.). Other cell lines were obtained from ATCC (Manassas, Va.). The PMO's were 3′-labeled with fluorescein as described in Example 1. To avoid artifacts, all fluorescent images were taken from live cells, and no fixative agent or mounting media were used.
Cells were plated onto a 48-well plate. The next day the conditioned medium was removed and the test substances in fresh medium were added to the wells. After incubation, the cells were washed with phosphate-buffered saline (PBS) three times and visualized directly in the culture medium with a Nikon Diaphot 300 inverted microscope. Images were captured with an Olympus digital camera connected to a computer using MagnaFire software (Optronics, Goleta, Calif.).

HeLa pLuc705 cells = assay: Fluorometry: association (adsorption) of fluorescein-labeled conjugate with cells; format: cell-based, human
Method: HeLa pLuc/705 cells plated in a 48 well plate were treated with medium containing test substance. After incubation, cells were washed with PBS three times.
To measure the sum of membrane-bound and internalized fluorescence, cells were lysed directly in the wells by addition of 100 μl of cell lysis buffer (Promega, Madison, Wis.) to each well. Cell lysates were collected. The total fluorescence was determined by mixing 20 μl of cell lysate and 80 μl of 0.1 M Na2CO3 (pH 11) and measuring with an Flx 800 microplate fluorescence-luminescence reader with excitation at 485 nm and emission at 524 nm.
To measure internalized conjugate, the membrane-bound conjugate was removed by trypsinization, as follows. Trypsin (100 μl, 10%, Hyclone, Logan, Utah) was added to each well and incubated for 6 minutes at 37° C., followed by addition of 300 μl of culture media. The cells were spun down and washed with PBS, then lysed with 100 μl cell lysis buffer. The fluorescence of the cell lysate was measured as described above.

trypsin = assay: Degradation of conjugate by trypsin; format: in vitro ADME; settings: data not shown

Substance: R9F2C-PMO: covalent conjugate of PMO 705 and transport peptide R9F2 via cysteine; fluorescein-labeled in uptake studies (chain RRRRRRRRRFFC; antisense cctcttacctcagttaca; cysteine linkage; PMO; fluorescein; synthetic transport peptide; synthetic oligomer)
- incubation time after which luciferase was produced [1]: 120 min
- pattern of fluorescence ([2]; HeLa S3 cells): less intense cytosolic diffuse fluorescence
- pattern of fluorescence ([2]; HeLa cells): mostly diffused fluorescence
- location of fluorescence in cells ([2]; HeLa, NIH3T3 or HeLa pLuc/705 cells, 20 minutes treatment, DHE nuclear stain): Diffuse green fluorescence was seen in both cytoplasm and nucleus
- pattern of fluorescence ([2]; Jurkat cells): lowest level of fluorescence
- pattern of fluorescence ([2]; NIH3T3 cells): very bright and diffused cytosolic and nuclear fluorescence
- cells in which fluorescence was observed ([2]; all four cell lines, live cells): 100%
- fluorescence of cells incubated at 37° C. compared with 17° C. (HeLa pLuc705 cells; 0.1 to 5 μM, 70 minutes): similar
- time at which cell fluorescence reached maximum intensity (HeLa pLuc705 cells; HeLa pLuc705 cells, 1 μM, 900 minute study period): 30 to 45 min
- adsorption with increasing concentration (HeLa pLuc705 cells; increase between 0.1-1 μM, not between 1-5 μM): saturable
- sensitivity to degradation by trypsin (trypsin): sensitive to degradation by trypsin
